The assay deals with TNF α production from mouse macrophages. The assay is described as follows: Inhibitory activity of compound on TNF α Production from mouse macrophages (LPS-induced PEC's). The assay is classed as cell-based. The note with it: Macrophage, LPS 10 μg/ml, 18 hours. The procedure:
BALB/c mice (female, 5-7 weeks old, Charles River Japan, Tokyo, Japan) were injected i.p. with 1 ml of 2.4% thioglycollate broth. After 4 days, the mice were sacrificed. Peritoneal exudated cells (PEC's) were collected from the peritoneal cavity by washing with minimum essential medium (MEM, Handai biseibutubyou kenkyukai, Osaka, Japan) containing 5 U/ml heparin, 1% fetal bovine serum (FBS, Filtron, Victoria, Australia) and antibiotics. The cells were washed two times with MEM, suspended with MEM containing 10% FBS (complete MEM, cMEM) and seeded into 96-well culture plates (Costar, Cambridge, Mass., USA) at 2×10^5 cells/well. The cells were incubated for 1 hour at 37° C. in a humidified 5% CO2 incubator and washed two times to remove non-adherent cells.
TNF α was induced by 10 μg/ml of LPS (E. coli O111B4, DIFCO, Detroit, Mich., USA) the cells were cultured for 18 hours at 37° C. A compound of the present invention was dissolved in DMSO and added to the culture simultaneously with LPS. The final DMSO concentration was below 0.1%. The TNF α concentration in supernatant and recombinant mouse TNF α standard (rm-TNF α, Genzyme, Mass., USA) were incubated overnight at 4° C. in a 96-well plate coated with anti-mouse TNF α monoclonal antibody (PharMingen, San Diego, Calif., USA) that previously had been blocked with 10% FBS. Each well of the plate first was incubated at room temperature with biotinylated anti-mouse TNF α polyclonal antibodies (PharMingen) for 45 minutes, then with peroxidase-conjugated streptavidin (Kirkegaard & Perry Laboratories Inc., Gaitherburg, Md., USA) for 30 minutes. After each incubation, the plate was washed 4 to 8 times with PBS containing 0.2% Tween 20. TMB (Kirkegaard & Perry Laboratories Inc.) was the peroxidase substrate used and, the absorbance of each well was quantified at 450 nm by a microplatereader (Molecular Devices Corp., CA, USA). TNF α levels in the supernatant were quantified with rm-TNF α as the standard.

`CC(C)(C)OC(=O)NCCCCCCC(=O)N1CCC(c2nc(N)nc3ccccc23)CC1` [Example 27, 2-amino-4-[1-(7-t-butoxycarbonylaminoheptanoyl)-4-piperidinyl]quinazoline]: the inhibition (usually the drop in the measured response relative to a control, in per cent) at 30 µM turned out to be 95%. Regarding `CCCCCCCCCCC(=O)N1CCC(c2nc(N)nc3ccccc23)CC1` [Example 24], the inhibition at 30 µM worked out at 70%.

Take `COc1ccc(Cc2cc(C3CCN(C(=O)CCBr)CC3)nc(N)n2)cc1` [Example 175]: the inhibition at 30 µM was determined as 48%. The same measure for `COc1ccc(Cc2cc(C3CCN(C(=O)Cc4ccc(OC)c(OC)c4)CC3)nc(N)n2)cc1` [Example 237]: 87%. Turning to `CCCCCCCC(=O)N1CCC(c2cc(Cc3ccc(OC)cc3)nc(N)n2)CC1` [Example 168], the inhibition at 30 µM is 49%. The value for `COc1ccc(CC(=O)N2CCC(c3nc(N)nc4ccccc34)CC2)cc1OC` [Example 92] was 68%; that for `COc1ccc(Cc2cc(C3CCN(C(=O)c4ccc([N+](=O)[O-])cc4)CC3)nc(N)n2)cc1` [Example 186] was 67%; that for `Nc1nc(Cc2ccc(Cl)cc2)cc(C2CCN(C(=O)c3ccc4c(c3)OCO4)CC2)n1` [Example 250] was 91%.

On to `CCCCCCC(=O)N1CCC(c2nc(N)nc3ccccc23)CC1` [Example 20], for which the inhibition at 30 µM came out at 63%. The same measure for `COc1ccc(Cc2cc(C3CCN(C(=O)C(C)(C)C)CC3)nc(N)n2)cc1` [Example 173]: 31%; for `COc1ccc(Cc2cc(C3CCN(C(=O)NCc4ccccc4)CC3)nc(N)n2)cc1` [Example 283, 2-amino-4-(1-benzylcarbamoyl-4-piperidinyl)-6-(4-methoxyphenylmethyl)pyrimidine]: 81%.

Take `Nc1nc(C2CCN(C(=O)Cc3ccc([N+](=O)[O-])cc3)CC2)c2ccccc2n1` [Example 88]: the inhibition at 30 µM was found to be 26%. The same measure for `CCCCCCCCCC(=O)N1CCC(c2cc(Cc3ccc(OC)cc3)nc(N)n2)CC1` [Example 170]: 11%; for `CCCCCCCCCC(=O)N1CCC(c2nc(N)nc3ccc(Cl)cc23)CC1` [Example 129]: 48%; for `CCCCCCCC(=O)N1CCC(c2nc(N)nc3ccc(Cl)cc23)CC1` [Example 127]: 48%. The same measure for `COc1ccc2nc(N)nc(C3CCN(C(=O)Cc4ccc(Cl)cc4)CC3)c2c1` [Example 123]: 28%; for `NCCCCCCC(=O)N1CCC(c2nc(N)nc3ccccc23)CC1` [Example 284, 2-amino-4-[1-(7-aminoheptanoyl)-4-piperidinyl]quinazoline]: 3%.

As to `CCCCCCCCC(=O)N1CCC(c2cc(-c3ccc(Cl)cc3)nc(N)n2)CC1` [Example 148], the inhibition at 30 µM worked out at 68%. The value for `Nc1nc(C2CCN(C(=O)Cc3ccc(Cl)cc3)CC2)c2ccccc2n1` [Example 82] was 59%; that for `COc1ccc(Cc2cc(C3CCN(C(=O)Cc4cc(OC)cc(OC)c4)CC3)nc(N)n2)cc1` [Example 238] was 96%; that for `COc1ccc(-c2cc(C3CCN(C(=O)c4ccccc4)CC3)nc(N)n2)cc1` [Example 5, 2-Amino-4-(1-benzoyl-4-piperidinyl)-6-(4-methoxyphenyl)pyrimidine] was 57%.

As to `Nc1nc(C2CCN(C(=O)OCc3ccccc3)CC2)c2ccccc2n1` [Example 269], the inhibition at 30 µM worked out at 77%. The value for `COc1ccc(Cc2cc(C3CCN(C(=O)Cc4ccc(Cl)cc4Cl)CC3)nc(N)n2)cc1` [Example 239] was 99%; that for `COc1ccc(Cc2cc(C3CCN(C(C)=O)CC3)nc(N)n2)cc1` [Example 162] was 61%. In the case of `COc1ccc(Cc2cc(C3CCN(C(=O)c4ccc(Cl)cc4Cl)CC3)nc(N)n2)cc1` [Example 204], the inhibition at 30 µM was 84%.

Consider `CC(C)(C)C(=O)N1CCC(c2nc(N)nc3ccccc23)CC1` [Example 26], for which the inhibition at 30 µM is 19%. On to `COc1ccc(Cc2cc(C3CCN(C(=O)Cc4ccc5c(c4)OCO5)CC3)nc(N)n2)cc1` [Example 243], for which the inhibition at 30 µM came out at 93%. The value for `CCC(=O)N1CCC(c2cc(Cc3ccc(OC)cc3)nc(N)n2)CC1` [Example 163] was 79%. The value for `COc1ccc(-c2cc(C3CCN(C(=O)Cc4ccc(Cl)cc4)CC3)nc(N)n2)cc1` [Example 159] was 75%; that for `COc1ccc(Cc2cc(C3CCN(C(=O)OCc4ccccc4)CC3)nc(N)n2)cc1` [Example 274] was 49%; that for `CCCCCCCCCC(=O)N1CCC(c2cc(CCc3ccccc3)nc(N)n2)CC1` [Example 257] was 90%.

`Nc1nc(C2CCN(C(=O)c3c(Cl)cc(Cl)cc3Cl)CC2)c2ccccc2n1` [Example 75]: the inhibition at 30 µM turned out to be 92%.

Take `COc1ccc(CC(=O)N2CCC(c3nc(N)nc4ccccc34)CC2)cc1` [Example 79]: the inhibition at 30 µM is -3%.

For `CCCCC(=O)N1CCC(c2cc(Cc3ccc(OC)cc3)nc(N)n2)CC1` [Example 165], the inhibition at 30 µM was determined as 41%.

On to `COc1ccc(CC(=O)N2CCC(c3cc(CCc4ccccc4)nc(N)n3)CC2)cc1` [Example 261], for which the inhibition at 30 µM was 42%. The value for `CCCCCC(=O)N1CCC(c2cc(Cc3ccc(OC)cc3)nc(N)n2)CC1` [Example 166] was 48%; that for `CCCCCCCCCCC(=O)N1CCC(c2cc(Cc3ccc(OC)cc3)nc(N)n2)CC1` [Example 171] was 13%. The same measure for `Nc1nc(C2CCN(C(=O)c3cccc([N+](=O)[O-])c3)CC2)c2ccccc2n1` [Example 39]: 12%; for `Nc1nc(CCc2ccccc2)cc(C2CCN(C(=O)Cc3ccc([N+](=O)[O-])cc3)CC2)n1` [Example 263]: 37%.

For `Nc1nc(C2CCN(C(=O)c3ccccc3[N+](=O)[O-])CC2)c2ccccc2n1` [Example 38], the inhibition at 30 µM was found to be 30%.

On to `CC(C)(C)OC(=O)NCCCCCCCCCCC(=O)N1CCC(c2nc(N)nc3ccccc23)CC1` [Example 29, 2-amino-4-[1-(11-t-butoxycarbonylaminoundecanoyl)-4-piperidinyl]quinazoline], for which the inhibition at 30 µM amounted to 100%. The value for `CCC(=O)N1CCC(c2nc(N)nc3ccccc23)CC1` [Example 16] was 4%; that for `COc1cc(C(=O)N2CCC(c3nc(N)nc4ccccc34)CC2)cc(OC)c1OC` [Example 72] was 32%; that for `COc1ccc(-c2cc(C3CCN(C(=O)Cc4ccc([N+](=O)[O-])cc4)CC3)nc(N)n2)cc1` [Example 160] was 57%.

Regarding `COc1ccc(Cc2cc(C3CCN(C(=O)CCN)CC3)nc(N)n2)cc1` [Example 287, 2-amino-4-[1-(3-aminopropanoyl)-4-piperidinyl]-6-(4-methoxyphenylmethyl)pyrimidine], the inhibition at 30 µM stood at 40%.

As for `CCCCCCCCC(=O)N1CCC(c2nc(N)nc3ccc(Cl)cc23)CC1` [Example 128], the inhibition at 30 µM was 79%. The same measure for `COc1cccc(CC(=O)N2CCC(c3nc(N)nc4ccccc34)CC2)c1` [Example 78]: 10%.

Consider `CCCCCCCC(=O)N1CCC(c2cc(CCc3ccccc3)nc(N)n2)CC1` [Example 255], for which the inhibition at 30 µM turned out to be 47%. The value for `COc1ccc2nc(N)nc(C3CCN(C(=O)Cc4ccc([N+](=O)[O-])cc4)CC3)c2c1` [Example 126] was 43%; that for `Nc1nc(-c2ccc(Cl)cc2)cc(C2CCN(C(=O)Cc3ccc(Cl)cc3)CC2)n1` [Example 152] was 90%.

Regarding `COc1ccc(CC(=O)N2CCC(c3cc(-c4ccccc4)nc(N)n3)CC2)cc1` [Example 142], the inhibition at 30 µM was 55%. The value for `Nc1nc(C2CCN(C(=O)c3cc(Cl)ccc3Cl)CC2)c2ccccc2n1` [Example 60] was 73%; that for `COc1ccc(Cc2cc(C3CCN(C(=O)c4cccc([N+](=O)[O-])c4)CC3)nc(N)n2)cc1` [Example 185] was 69%.

Regarding `COc1ccc(Cc2cc(C3CCN(C(=O)c4ccc(OC)cc4OC)CC3)nc(N)n2)cc1` [Example 198], the inhibition at 30 µM amounted to 29%. The same measure for `COc1ccc(C(=O)N2CCC(c3nc(N)nc4ccccc34)CC2)c(OC)c1OC` [Example 68]: 8%. Regarding `Nc1nc(C2CCN(S(=O)(=O)Cc3ccccc3)CC2)c2ccccc2n1` [Example 272], the inhibition at 30 µM was found to be 5%.

In the case of `Nc1nc(-c2ccccc2)cc(C2CCN(C(=O)Cc3ccc(Cl)cc3)CC2)n1` [Example 143], the inhibition at 30 µM was found to be 55%. The same measure for `CCCCCCCCC(=O)N1CCC(c2cc(Cc3ccc(OC)cc3)nc(N)n2)CC1` [Example 169]: 12%; for `COc1ccc(Cc2cc(C3CCN(C(=O)c4ccncc4)CC3)nc(N)n2)cc1` [Example 196]: 57%.

For the origin of these results see patent US5948786A, “Piperidinylpyrimidine derivatives” (Sumitomo Pharmaceuticals Company, Limited, priority 1996, dated 1999).
